Assay [1] addresses Synechococcus sp. HPPD "SEQ ID No. 5". The assay can be described thus: HPLC assay of HPPD activity, in vitro kinetic properties. The assay is classed as biochemical. The method, then: Km, Vmax, and kcat values for different HPPD enzyme preparations and Ki, K1=Kon, and K−1=Koff for different HPPD inhibitors were determined using a HPLC assay for measurements of HPPD activity. […] All assays were started by the addition of HPPD enzyme to the assay mixture and stopped at a series of times between 0 and 240 s by addition of 200 μl of the reaction mixture to reaction assay tubes containing 20 μl 10% perchloric acid. Precipitated protein was pelleted by a 5 minute centrifugation at 10,000 g. […] A standard set of concentrations of HGA were used to provide a standard curve in order to calibrate the 292 nm absorbance of the HGA peak versus HGA concentration.
For Km and Vmax value determinations the initial rates of the HPPD reaction at different substrate concentrations were determined from plots of HGA formed versus time and fitted to the Michaelis-Menten equation for unireactant enzymes using the ID Business Solutions Ltd. (idbs.com) XLfit software suite. For the determination of Ki, K1=Kon, and K=−1=Koff values the time-courses of the HPPD reaction at different inhibitor concentrations were fitted to the equations for Mechanism A, competitive inhibition, for tight-binding inhibitors (Cha, S. (1975) Tight-binding inhibitors-I. Kinetic behaviour. Biochemical Pharmacology 24, 2177-2185) using the ID Business Solutions Ltd. XLfit software suite
(§1) In below given table 1, “Km” (Michaelis-Menten constant) means the kinetic parameter that is used to characterise an enzyme, and it is defined as the concentration of substrate that permits half maximal rate of the reaction. Km is further defined as the substrate concentration at which the reaction rate reaches half of its maximum value (Vmax/2) where Vmax has the meaning of being the maximum velocity of the reaction.
(§2) Kon=K1 equals the association rate constant of the […] binding and Koff=K−1 equals the rate constant of the enzyme-inhibitor complex dissociation. Ki defines the inhibition constant.

In assay [2] the test system is Synechococcus sp. HPPD "SEQ ID No. 5". The assay can be described thus: HPPD activity in presence of HPPD inhibitors (pI50, % inhibition). The settings on record: for pI50: 2 mM HPP, 3 minutes incubation; for percentage of inhibition: 5.0 × 10^−6 M inhibitor, compared to activity in absence of inhibitor. The assay is classed as biochemical. The source says:
(§3) In this content, pI50-value means the log value of the concentration of inhibitor necessary to inhibit 50% of the enzyme activity in molar concentration.

Assay [3] concerns T1 tobacco plants carrying FMP38e. Kind of assay: Glasshouse response to bicyclopyrone, injury classes. In kind it is in vivo, Nicotiana tabacum. The settings on record: 100 g AI/ha, 7 DAT. The source says: (§4) Seeds of wild type tobacco plants and T1 tobacco plants carrying the gene from Synechococcus sp. FMP38e coding for HPPD were sown on MS media (Murashige and Skoog 1964) supplemented with […] kanamycin. After 4 weeks, rooted green plantlets were transferred to soil and grown for 3 weeks in the glasshouse as described above then sprayed with a mixture containing bicyclopyrone (100 g AI/ha), ammonium sulfate and methyl ester raps oil. The plants were classified in two categories based on the phenotype developed in response to the herbicide seven days after the treatment. […] In this case, only plants containing at least one T-DNA were exposed to the herbicidal treatment.

In the next assay the test system is wild type tobacco plants. The description is as above. In kind it is in vivo, Nicotiana tabacum. As to conditions: 100 g AI/ha, 7 DAT; line WT.
Text: as §4

Assay [4] has as its system transgenic soybean shoots (FMP38). Kind of assay: Soybean shoot greening under isoxaflutole selection. The assay is classed as in vivo. As to conditions: isoxaflutole as selection marker. The source says: (§5) Soybean transformation is achieved using methods well known in the art, such as the one described using the Agrobacterium tumefaciens mediated transformation soybean half-seed explants described by Paz et al. (2006, Plant cell Rep. 25:206). Transformants were identified using Isoxaflutole as selection marker. The appearance of green shoots was observed, and documented as an indicator of tolerance to the herbicide isoxaflutole. […] Tolerant green shoots were transferred to rooting media or grafted. Rooted plantlets are transferred to the glasshouse after an acclimation period.

In another assay the test system is wild-type soybean shoots. Described as above. The assay is classed as in vivo. The settings on record: same amount of isoxaflutole.
Text: as §5

For assay [5], the target named is T1, Arabidopsis thaliana HPPD "SEQ ID No. 10" (Arabidopsis thaliana, UniProt P93836).
T1 construct: Preparation of Synechococcus sp; Ala + 6xHis (N); made in house; host or cells: E. coli K-12 BL21 (pQE30-AtHPPD)
T1 sequence (P93836 with tags, fused parts or gaps): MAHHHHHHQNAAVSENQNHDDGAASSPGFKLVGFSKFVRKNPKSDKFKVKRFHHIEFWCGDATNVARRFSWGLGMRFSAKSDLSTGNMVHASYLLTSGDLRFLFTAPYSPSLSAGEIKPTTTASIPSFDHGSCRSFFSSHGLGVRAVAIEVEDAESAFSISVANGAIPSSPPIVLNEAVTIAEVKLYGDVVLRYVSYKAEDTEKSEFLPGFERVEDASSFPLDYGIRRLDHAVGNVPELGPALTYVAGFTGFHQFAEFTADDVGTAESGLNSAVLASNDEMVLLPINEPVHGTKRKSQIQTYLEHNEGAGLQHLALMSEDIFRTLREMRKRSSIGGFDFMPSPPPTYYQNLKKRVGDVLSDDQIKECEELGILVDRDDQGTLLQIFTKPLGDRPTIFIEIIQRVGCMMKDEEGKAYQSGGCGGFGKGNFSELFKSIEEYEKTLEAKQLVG
The assay can be described thus: HPPD activity in presence of HPPD inhibitors (pI50, % inhibition). In kind it is biochemical.
Text: as §3

The target in assay [6] is T1, Arabidopsis thaliana HPPD "SEQ ID No. 10". The assay can be described thus: HPLC assay of HPPD activity, in vitro kinetic properties. In kind it is biochemical. The settings on record: substrate HPP varied between 10 and 400 μM. The method, then:
Km, Vmax, and kcat values for different HPPD enzyme preparations and Ki, K1=Kon, and K−1=Koff for different HPPD inhibitors were determined using a HPLC assay for measurements of HPPD activity. […] All assays were started by the addition of HPPD enzyme to the assay mixture and stopped at a series of times between 0 and 240 s by addition of 200 μl of the reaction mixture to reaction assay tubes containing 20 μl 10% perchloric acid. Precipitated protein was pelleted by a 5 minute centrifugation at 10,000 g.
For Km and Vmax value determinations the initial rates of the HPPD reaction at different substrate concentrations were determined from plots of HGA formed versus time and fitted to the Michaelis-Menten equation for unireactant enzymes using the ID Business Solutions Ltd. (idbs.com) XLfit software suite.
as §1, §2

[7] abbreviates: substrate HPP varied between 10 and 400 μM.

Usually Ki stands for a dissociation constant, usually derived from enzyme kinetics or from competition with a known ligand. Read a low Ki as tighter binding. In the case of `CS(=O)(=O)c1cc(C(F)(F)F)ccc1C(=O)C(C#N)C(=O)C1CC1` (stereo not drawn) [Diketonitrile, 2-cyano-3-cyclopropyl-1-(2-methylsulphonyl-4-trifluoromethylphenyl)-propane-1,3-dione], affinity in assay [1] (2 mM HPP) was put at a Ki of 12 µM. For the same compound, in assay [2], the pI50 stood at 5.5 and the percentage of inhibition is reported as 62%.
On to `COCCOCc1nc(C(F)(F)F)ccc1C(=O)C1=C(O)C2CCC(C2)C1=O` (stereo not drawn) [Bicyclopyrone, 4-hydroxy-3-[[2-[(2-methoxyethoxy)methyl]-6-(trifluoromethyl)-3-pyridinyl]carbonyl]bicyclo[3.2.1]oct-3-en-2-one], for which, in assay [3] (line 34), the “% of tolerant plant” value amounted to 17%, the “Class I (injury: 0-30%)” value is 59 and the “Class II (injury: 31-100%)” value came out at 6. In assay [3] (line 39), the “% of tolerant plant” value is recorded as 46%, the “Class I (injury: 0-30%)” value is given as 100 and the “Class II (injury: 31-100%)” value amounted to 48. Moreover, in assay [3] (line 197), the “% of tolerant plant” value was 15%, the “Class I (injury: 0-30%)” value was 89 and the “Class II (injury: 31-100%)” value is 15. Further, in the assay with wild type tobacco plants, the “% of tolerant plant” value is listed as 0%, the “Class I (injury: 0-30%)” value turned out to be 0 and the “Class II (injury: 31-100%)” value turned out to be 12. Besides, in assay [2], the pI50 is 5.0 and the percentage of inhibition turned out to be 19%.
Turning to `CS(=O)(=O)c1ccc(C(=O)C2C(=O)CCCC2=O)c(Cl)c1COCC1CCCO1` (stereo not drawn) [Tefuryltrione, 2-[2-chloro-4-(methylsulfonyl)-3-[[(tetrahydro-2-furanyl)methoxy]methyl]benzoyl]-1,3-cyclohexanedione], in assay [2], the pI50 is reported as 5.6 and the percentage of inhibition was 72%.
For the compound `CS(=O)(=O)c1cc(C(F)(F)F)ccc1C(=O)c1cnoc1C1CC1` [Isoxaflutole, (5-cyclopropyl-4-isoxazolyl)[2-(methylsulfonyl)-4-(trifluoromethyl)phenyl]methanone], the “transgenic tested shoots showing normal greening” value in assay [4] is 0.6%. Moreover, in the assay on wild-type soybean shoots, the bleaching of shoots result was “entirely bleached”.
For `Cc1nn(C)c(O)c1C(=O)c1ccc(C(F)(F)F)cc1S(C)(=O)=O` [Pyrasulfotole], the pI50 is recorded as 4.7 in assay [2] and 5.4 in assay [5] (2 mM HPP, 3 minutes incubation). Moreover, the percentage of inhibition in assay [2] was 16%; in assay [5] (5.0 × 10^−6 M inhibitor, compared to activity in absence of inhibitor) it was 69%.
A word on the Km: it is the concentration of substrate that gives half-maximal velocity. With `O=C(O)C(=O)Cc1ccc(O)cc1` [HPP, para-hydroxyphenylpyruvate], in assay [1] (setting [7]), the Michaelis-Menten constant (Km) came to 5.1 µM and the Vmax amounted to 1.2 µM. In assay [6], the Km was determined as 6.3 µM and the Vmax came to 1.2 µM.
With `CS(=O)(=O)c1ccc(C(=O)C2C(=O)CCCC2=O)c([N+](=O)[O-])c1` [Mesotrione, 2-[4-(methylsulfonyl)-2-nitrobenzoyl]-1,3-cyclohexanedione], in assay [2], the pI50 is 5.4 and the percentage of inhibition is 47%.
Turning to `CS(=O)(=O)c1ccc(C(=O)C2C(=O)CCCC2=O)c(Cl)c1` [Sulcotrione, 2-[2-chloro-4-(methylsulfonyl)benzoyl]-1,3-cyclohexanedione], the percentage of inhibition in assay [2] is reported as 19%.
On to `Cc1ccc(C(=O)COc2c(C(=O)c3ccc(Cl)c(C)c3Cl)c(C)nn2C)cc1` [Benzofenap], for which the percentage of inhibition in assay [2] is 31%.

The record behind these values is patent US20150159167A1, “Plants Tolerant to HPPD Inhibitor Herbicides” (Bayer CropScience AG, priority 2009, published 2015).
